Results on 17 molecules are retold here after patent US8835418B2, “Hexafluoroisopropyl carbamate derivatives, their preparation and their therapeutic application” (SANOFI, priority 2010, dated 2014).

Molecules are shown by their SMILES. Counter-ions that a name gives are not always drawn.

Data set [1] has as its target T1, enzyme MGL (monoacyl glycerol lipase) (Mus musculus, UniProt O35678).
T1 construct: The source of enzyme MGL is a homogenate of mouse brain from which the cerebellum and the medulla oblongata have been removed; from tissue; host or cells: mouse brain homogenate (cerebellum and medulla oblongata removed)
T1 sequence (O35678 1-303): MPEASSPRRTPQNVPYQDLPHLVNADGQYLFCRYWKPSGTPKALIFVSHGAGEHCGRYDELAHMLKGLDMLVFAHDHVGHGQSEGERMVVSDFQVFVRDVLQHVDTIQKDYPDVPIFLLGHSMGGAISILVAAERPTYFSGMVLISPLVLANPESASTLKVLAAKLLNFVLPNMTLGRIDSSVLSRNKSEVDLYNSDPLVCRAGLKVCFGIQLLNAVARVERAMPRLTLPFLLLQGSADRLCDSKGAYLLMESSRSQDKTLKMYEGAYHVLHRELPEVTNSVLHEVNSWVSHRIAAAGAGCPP
Put plainly: radioenzymatic assay of MGL activity (hydrolysis of [3H]2-oleoylglycerol by mouse brain homogenate). Type of data set: biochemical. To be noted: mouse brain homogenate (37.5 μg protein), 20 min preincubation, 50 μM 2-OG with [3H]2-OG, ambient temperature, read-out: IC50 (concentration which inhibits the control enzymatic activity of the MGL by 50%). As to the method: The inhibitory activity with respect to MGL is given by the concentration which inhibits 50% of the activity of MGL.
The inhibitory activity was measured in a radioenzymatic assay based on measuring the product of hydrolysis of 2-oleoylglycerol ([^3H]2-OG) by the enzyme MGL. The products of hydrolysis of [^3H]2-OG, labelled on the glycerol, are oleic acid and [^3H]glycerol. The source of enzyme MGL is a homogenate of mouse brain from which the cerebellum and the medulla oblongata have been removed. The mouse brains are removed and stored at −80° C. until they are used or homogenized immediately for 2 times 5 seconds using a Precellys device (Bertin) at 5000 rpm in a 10 mM Tris-HCl pH 8, 150 mM NaCl, 1 mM EDTA buffer at 4° C.
The dilution series of the compounds is prepared from stock solutions at 20 mM in 100% DMSO. The first dilution of this series is prepared in 100% DMSO and then the second is prepared in the enzymatic reaction buffer (50 mM phosphate, 0.1% BSA), resulting in the preparation of a 10-times concentrated concentration range. The test compounds are preincubated at the chosen concentration for 20 minutes with the mouse brain homogenate preparation.
Assaying of the MGL activity is carried out at ambient temperature in a 96-well microplate in a final reaction volume of 50 μl. […] After 20 minutes of preincubation with the test compounds, the proteins are incubated for 20 minutes in the presence of 50 μM of 2-OG comprising an amount of [^3H]2-OG of 0.027 μCi per well (specific activity of 20 Ci/mmol). The reaction is stopped by the addition of 50 μl per well of a charcoal suspension (6% of Sigma activated charcoal, reference C4386, in suspension in a 0.5M HCl, 1.5M NaCl solution). After stirring for 10 minutes, the [^3H]glycerol, not retained by the charcoal, is collected by filtration in a microplate comprising 100 μl of scintillant (OptiPhase Supermix, Perkin-Elmer) per well.

For `O=C(OC(C(F)(F)F)C(F)(F)F)N1CC[C@@H](Oc2cccc(-c3ccc(F)cc3)c2)C1` [Compound 23, 2,2,2-Trifluoro-1-(trifluoromethyl)ethyl (R)-3-(4′-fluorobiphenyl-3-yloxy)pyrrolidine-1-carboxylate], the melting point is 72 to 73 °C.

Molecule `O=C(NCCC1CN(C(=O)OC(C(F)(F)F)C(F)(F)F)C1)Nc1cccc(Cl)c1` [Compound 188, 2,2,2-Trifluoro-1-(trifluoromethyl)ethyl 3-{2-[3-(3-chlorophenyl)ureido]ethyl}azetidine-1-carboxylate] registered a melting point of 116 to 117 °C. For the same molecule, in data set [1], the IC50 was determined as 1.1 nM.

`O=C(Nc1cccc(Cl)c1)NC1CCN(C(=O)OC(C(F)(F)F)C(F)(F)F)CC1` [Compound 166, 2,2,2-Trifluoro-1-(trifluoromethyl)ethyl 4-[3-(3-chlorophenyl)ureido]piperidine-1-carboxylate] came in with a melting point of 204 to 206 °C.

Regarding `CN(C(=O)NCCC1CN(C(=O)OC(C(F)(F)F)C(F)(F)F)C1)c1ccccc1` [Compound 191, 2,2,2-Trifluoro-1-(trifluoromethyl)ethyl 3-[2-(3-methyl-3-phenylureido)ethyl]azetidine-1-carboxylate], the melting point was 101 to 102 °C.

Molecule `N#Cc1cccc(-c2cccc(OC3CCN(C(=O)OC(C(F)(F)F)C(F)(F)F)CC3)c2)c1` [Compound 33, 2,2,2-Trifluoro-1-(trifluoromethyl)ethyl 4-(3′-cyanobiphenyl-3-yloxy)piperidine-1-carboxylate] gave a melting point of 80 to 82 °C. Further, in data set [1], the IC50 is 0.6 nM.

`CC(C)(Oc1ccc(Cl)cc1)C(=O)NCC1CCN(C(=O)OC(C(F)(F)F)C(F)(F)F)CC1` [Compound 87, 2,2,2-Trifluoro-1-(trifluoromethyl)ethyl 4-{[2-(4-chlorophenoxy)-2-methylpropionylamino]-methyl}piperidine-1-carboxylate]: the melting point lay in the range of 77 to 78 °C.

In turn, `N#Cc1cccc(-c2nccc(NC3CCN(C(=O)OC(C(F)(F)F)C(F)(F)F)CC3)n2)c1` [Compound 70, 2,2,2-Trifluoro-1-(trifluoromethyl)ethyl 4-[2-(3-cyanophenyl)pyrimidin-4-ylamino]pipendine-1-carboxylate] came in with a melting point of 151 to 153 °C. Also, the IC50 in data set [1] was 5 nM.

As for `O=C(OC(C(F)(F)F)C(F)(F)F)N1CCC(n2c(=O)[nH]c3cc(Cl)ccc32)CC1` [Compound 12, 2,2,2-Trifluoro-1-(trifluoromethyl)ethyl 4-(5-chloro-2-oxo-2,3-dihydrobenzimidazol-1-yl)piperidine-1-carboxylate], the melting point lay within 231 to 233 °C.

`N#Cc1ccc(C2CCN(C(=O)OC(C(F)(F)F)C(F)(F)F)CC2)cc1` [Compound 5, 2,2,2-Trifluoro-1-(trifluoromethyl)ethyl 4-(4-cyanophenyl)piperidine-1-carboxylate] had a melting point of 54 to 56 °C.

The molecule `O=C(OC(C(F)(F)F)C(F)(F)F)N1CC[C@H](Oc2cccc(-c3ccc(F)cc3)c2)C1` [Compound 22, 2,2,2-Trifluoro-1-(trifluoromethyl)ethyl (S)-3-(4′-fluorobiphenyl-3-yloxy)pyrrolidine-1-carboxylate] gave a melting point of 72 to 73 °C.

Take `O=C(OC(C(F)(F)F)C(F)(F)F)N1CC(C2(NS(=O)(=O)c3ccc(Cl)cc3)CC2)C1` [Compound 220, 2,2,2-Trifluoro-1-(trifluoromethyl)ethyl 3-[1-(4-chlorobenzenesulphonylamino)cyclopropyl]-azetidine-1-carboxylate]: the melting point lay within 108 to 109 °C.

Take `O=C(OC(C(F)(F)F)C(F)(F)F)N1CCC(n2nnc3cc(C(F)(F)F)ccc32)CC1` [Compound 13, 2,2,2-Trifluoro-1-(trifluoromethyl)ethyl 4-(5-(trifluoromethyl)benzotriazol-1-yl)piperidine-1-carboxylate]: the IC50 in data set [1] is 6 nM.

As for `O=C(OC(C(F)(F)F)C(F)(F)F)N1CCC(CNS(=O)(=O)c2cccc3nsnc23)CC1` [Compound 211, 2,2,2-Trifluoro-1-(trifluoromethyl)ethyl 4-[(benzo[1,2,5]thiadiazole-4-sulphonylamino)methyl]piperidine-1-carboxylate], the melting point fell in the range of 146 to 148 °C. For the same molecule, the IC50 in data set [1] worked out at 7 nM.

In turn, `NC(=O)c1cnn(CC2CCN(C(=O)OC(C(F)(F)F)C(F)(F)F)CC2)c1` [Compound 231, 2,2,2-Trifluoro-1-(trifluoromethyl)ethyl 4-(4-carbamoylpyrazol-1-ylmethyl)piperidine-1-carboxylate] had a melting point of 98 to 118 °C.

Take `O=C(OC(C(F)(F)F)C(F)(F)F)N1CCC(CNS(=O)(=O)c2cccc3ccccc23)C1` (stereo not drawn) [Compound 113, 2,2,2-Trifluoro-1-(trifluoromethyl)ethyl 3-[(naphthalene-1-sulphonylamino)methyl]-pyrrolidine-1-carboxylate]: the melting point is 135 to 136 °C.

Regarding `O=C(OC(C(F)(F)F)C(F)(F)F)N1CCC(Nc2ccc(C(F)(F)F)cn2)CC1` (as salt: hydrochloride) [Compound 65, 2,2,2-Trifluoro-1-(trifluoromethyl)ethyl 4-(5-(trifluoromethyl)pyridin-2-ylamino)piperidine-1-carboxylate hydrochloride (1:1)], the melting point was 225 to 235 °C (dec.).

Consider `O=C(OC(C(F)(F)F)C(F)(F)F)N1CCC(c2noc3cc(F)ccc23)CC1` [Compound 10, 2,2,2-Trifluoro-1-(trifluoromethyl)ethyl 4-(6-fluorobenz[d]isoxazol-3-yl)piperidine-1-carboxylate], for which the melting point lay in the range of 91 to 93 °C.

For orientation: melting point means the temperature of the solid-liquid transition.
